Results: patent US11395798B2, “O/W type emulsion” (NOF CORPORATION, priority 2015, dated 2022)

Experiments:
[1] = retentivity in blood test, 4 MU-Pal versus 4 MU-CHEMS; type: in vivo; settings: B-2:DOPC:Chol emulsion, tail vein, ICR mouse; comparison with 4 MU-Pal
Protocol: To a lipid mixture of B-2:DOPC:Chol=3:4:3 were added DSG-PEG2000 (9 mol %) and 30 mol % 4 MU-Pal, and 1 mol % fluorescent dye DiD was added to give an emulsion by a method similar to that in Example 1.
To a lipid mixture of B-2:DOPC:Chol:4 MU-CHEMS=3:4:1.5:1.5 was added DSG-PEG2000 (15 mol %), fluorescent dye DiD (1 mol %) was further added, and an emulsion was prepared by a method similar to that in Example 1.
The concentration of the particle suspension was set to 4 mM as a lipid concentration (B-2+DOPC+Chol). The suspension (250 μL) was administered to ICR mouse J 4-week-old from the tail vein. Blood (25 μL) was collected at each time point and mixed with pH 10.4 borate buffer (275 μL), ethanol (150 μL), 10% SDS (50 μL). 4 MU-Pal or 4 MU-CHEMS was hydrolyzed by incubation at 60° C. for 30 min. The fluorescence of the resulting 4-methylumbelliferone, and DiD modified by particles was each measured by a plate reader and the residual amount in the blood was examined from the analytical curve.

[2] = drug release and reduction responsibility test (dialysis, with or without 10 mM glutathione); type: physicochemical
Protocol: Using B-2, B-2-5, O-C3M, B-2-3, TS-P4C2 or L-PZ4C2 as a cationic lipid, an O/W type emulsion having a composition of cationic lipid:DOPC:Cholesterol=3:4:3 (molar ratio) was prepared. In this preparation, DSG-PEG2000 (9 mol %) was used as a PEG lipid. As a drug model molecule, 4-Methylumbelliferon Palmitate (30 mol %) was used and fluorescent probe DiD (1 mol %) was used for calibration by particles concentration.
An ethanol solution containing 1000 nmol as a total of cationic lipid, DOPE, and Cholesterol was prepared, and PEG lipid, drug model molecule and fluorescent probe were added in the above-mentioned amounts. Ethanol was added to make the total amount 400 μL, and the mixture was stood at 37° C. for 15 min. A similarly heated malic acid buffer (20 mM, pH 3.0, 30 mM NaCl) (400 μL) was mixed within 3 sec under vortex. PBS (NISSUI) (3200 μL) was immediately added thereto. The mixture was subjected to ultrafiltration using Amicon Ultra (Millipore) The centrifugation conditions were 1000 g, 25° C. […]
400 μL of the prepared emulsion was placed in a dialysis membrane (Spectrum Lab) having a molecular weight cutoff of 1000 and dialyzed against 40 mL of PBS at 37° C. […] After penetration and stirring at 60° C. for 30 min, the amounts of 4MU and DiD in the solution were quantified by fluorescence measurement (4MU: Ex385, Em450 DiD: Ex645, Em665). […]

[3] = particle size distribution by dynamic light scattering (Zetasizer Nano ZS); type: physicochemical
Protocol: The particle size distribution of the prepared emulsion was measured by dynamic light scattering using Zetasizer Nano ZS. The measurement conditions were 1 mM emulsion (40 μL) at 25° C. As a result, in all compositions, the volume median diameter was not more than 100 nm and, when a linear head was used (i.e., the formula (I) wherein X^a and X^b are each X^1), the particle size was not more than 50 nm. The drug recovery rate was not less than 85% (FIG. 1, Table 2).
EPC and Cholesterol were mixed to achieve 1000 nmol and a PEG lipid was added. Chloroform in an amount equal to that of the lipid ethanol solution was added and the mixture was dried under a nitrogen blow. PBS (1 mL) was added to the lipid membrane after drying and the mixture was stood for 10 min and sonicated by a bath-type sonicator for 3 min to give a particle suspension. The particle size distribution of the prepared particles was measured by dynamic light scattering in the same manner as in Example 1.
The particle size distribution of the produced emulsion solution was measured by dynamic light scattering similarly to Example 1. As a result, when DOPC was used, the volume median diameter was near 40 nm irrespective of pH.
An ethanol solution containing 500 nmol as a total of cationic B-2, DOPE, and Cholesterol was prepared, and a PEG lipid was added in the above-mentioned amount. Ethanol was added to make the total amount 200 μL, and the mixture was stood at ice temperature for 15 min. A similarly ice-cooled malic acid buffer (20 mM, pH 3.0, 0-1000 mM NaCl) (200 μL) was mixed within 3 sec under vortex. PBS (NISSUI) (3600 μL) was immediately added thereto. The mixture was subjected to ultrafiltration using Amicon Ultra (Millipore). The centrifugation conditions were 1000 G, 25° C. An operation including addition of 3200 μL of PBS after centrifugation for 10 min was repeated twice and the sample was concentrated to about 500 μL. The concentrate was diluted with PBS to a mass of 1000 mg to give a 0.5 mM (lipid concentration) emulsion. The particle size distribution of the produced emulsion solution was measured by dynamic light scattering similarly to Example 1.
The volume median diameter and the surface potential were measured using the dynamic light scattering (Zetasizer Nano; Malvern) in the same manner as in Example 1.
The average particle size of the produced particles was measured in the same manner as in Example 1 and the results are shown in Table 7.

[4] = DexPal-carrying rate by high performance liquid chromatography; type: physicochemical; settings: DexPal-carrying LNP
Protocol: 1 mM DexPal-carrying LNP (50 μL) was mixed with phosphate buffer (pH 7.4) (50 μL), and 50 μL thereof was mixed with MeOH (50 μL). 0.1% Trifluoroacetic acid/acetonitrile (400 μL) was added, and DexPal was detected by high performance liquid chromatography (column: InertSustain C18, 5 μm, 4.6 mm×250 mm (GL Sciences Inc.), mobile phase: MeOH:0.1% trifluoroacetic acid/acetonitrile=70:30, flow rate: 1 mL/min, detector: 240 nm, injection volume: 200 μL). As the analytical curve of Dex-Pal, 0.5 mM, 0.25 mM, 0.125 mM, 0.0625 mM, DexPalethanol solution (50 μL) was mixed with MeOH (50 μL), and 50 μL thereof was mixed with phosphate buffer (pH 7.4) (50 μL). 0.1% Trifluoroacetic acid/acetonitrile (400 μL) was added, and DexPal was detected by a method similar to that for DexPal-carrying LNP. The peak area and concentration were plotted, and the DexPal concentration and carrying rate in the DexPal-carrying LNP were calculated.

[5] = organ accumulation of particles in 4T1 tumor-bearing mouse (IVIS); type: in vivo, BALB/c mouse; settings: intravenous, lipid 800 nmol, 24 hr after administration, DiR fluorescence
Protocol: As cationic lipid, B-2 and B-2-5 were used. As conventional lipid, DODAP and EPC were used. The preparation methods of the O/W type emulsion and particle suspensions (DODAP, EPC) followed the methods described in Example 1 and Comparative Example 1. To visualize pharmacokinetics of the oil droplets constituting the O/W type emulsion or particle suspension (DODAP, EPC), fluorescent dye DiR was added by 0.2 mol % of the lipid. The particle concentration was adjusted to 4 mM as a lipid concentration.
As a tumor-bearing mouse, 4T1 cell (mouse breast cancer) was used. 1×10^6 4T1 cells were subcutaneously transplanted to the right flank of BALB/c mouse (♀, 4-week-old). At 7 days from the transplantation, 200 μL (lipid 800 nmol) of the O/W type emulsion or particle suspension (DODAP, EPC) containing fluorescence-modified particles was intravenously administered. At 24 hr after administration, […] was performed, and the spleen, liver and tumor were collected and image was obtained by IVIS. The average fluorescence intensity was calculated using Living Image Software.
As a cationic lipid, B-2 was used. An O/W type emulsion was prepared according to Example 3. In this preparation, 4-Methylumbelliferon (10 mol %) was used as a model drug and DMG-PEG2000 (10 mol %) and DSG-PEG2000 (2.5 mol %) were used as PEG lipids, and a 4.0 mM (based on lipid concentration) emulsion was prepared. To visualize pharmacokinetics of the oil droplets constituting the O/W type emulsion or particle suspension (DODAP, EPC), fluorescent dye DiR was added by 0.2 mol % of the lipid. As the salt (NaCl) concentration during preparation of particles, 30 mM, 150 mM, 750 mM were selected and taken as “Small”, “Medium”, “Large”, respectively. The particle concentration was adjusted to 4 mM as a lipid concentration.
The organ distribution in a tumor-bearing mouse was evaluated in the same manner as in Experimental Example 1. As a result, accumulation in the spleen, liver decreased as the particle size became smaller.

release of drug model substance ([2]; conventional lipid particle suspension, 24 hr, under any conditions (reduction or nonreduction)) | responsiveness under reduction ([2]; conventional lipid:DOPC:Cholesterol=3:4:3 particle suspension, 4-Methylumbelliferon Palmitate 30 mol %) | PdI ([3]; DexPal-carrying particles) | volume median diameter ([3]; DexPal-carrying particles (lipid, DOPC, Chol, DMG-PEG2000, DSG-PEG2000, DexPal)) | PdI ([3]; particle suspension of conventional lipid (DODAP:DOPE:Cholesterol=3:4:3 or EPC:Cholesterol=3:2)) | volume median diameter ([3]; particle suspension of conventional lipid (DODAP:DOPE:Cholesterol=3:4:3 or EPC:Cholesterol=3:2), 4-Methylumbelliferon 10 mol %) | carrying rate [4] | transfer into tumor [5] | Compound | retentivity in blood [1]
 |  |  |  |  |  |  |  | Cc1cc(=O)oc2cc(OC(=O)CCC(=O)OC3CCC4(C)C(=CCC5C4CCC4(C)C(C(C)CCCC(C)C)CCC54)C3)ccc12 (stereo not drawn) [4 MU-CHEMS, 4-methylumbelliferone cholesterol hemisuccinate] | stayed longer in the blood than 4 MU-Pal
hardly released | not found | 0.15 ± 0.01 | 39.1 ± 2.2 nm·days | 0.418 | 34.8 nm | 89.6 ± 2.9% | transfer well into tumor | CCCCCCCC/C=C\CCCCCCCC(=O)OCC(CN(C)C)OC(=O)CCCCCCC/C=C\CCCCCCCC (stereo not drawn) [DODAP] | 
